Results: ChEMBL document CHEMBL3885881, “DrugMatrix”

Species: Rattus norvegicus
Experiment: DrugMatrix - Regimen: Daily Repeat
Format: toxicity, organism-based, Sprague-Dawley
Design: regimen Daily Repeat, gender Male, age 6-8 weeks
Settings: in vivo, sc, 0 mg/kg, route mini-PUMP - SUBCUTANEOUS, dose level Control, vehicle 100 % SALINE; for ABSOLUTE BASOPHIL / ABSOLUTE EOSINOPHIL / ABSOLUTE LYMPHOCYTE / ABSOLUTE MONOCYTE / ABSOLUTE SEGMENTED NEUTROPHIL / BASOPHIL / EOSINOPHIL / ERYTHROCYTE COUNT / HEMATOCRIT / HEMOGLOBIN / LEUKOCYTE COUNT / LYMPHOCYTE / MEAN CORPUSCULAR HEMOGLOBIN / MEAN CORPUSCULAR HEMOGLOBIN CONCENTRATION / MEAN CORPUSCULAR VOLUME / MONOCYTE / NEUTROPHIL / NUCLEATED RED BLOOD CELLS / PLATELET COUNT: tissue Blood; for ALANINE AMINOTRANSFERASE / ALBUMIN / ALKALINE PHOSPHATASE / ASPARTATE AMINOTRANSFERASE / BLOOD UREA NITROGEN / CARBON DIOXIDE / CHLORIDE / CHOLESTEROL / CREATININE / GLUCOSE / LACTATE DEHYDROGENASE / LIPASE / PHOSPHORUS / POTASSIUM / SODIUM / TOTAL BILIRUBIN / TOTAL PROTEIN / URIC ACID: tissue Plasma

In the case of CNC[C@H](O)c1cccc(O)c1 [PHENYLEPHRINE], the “ABSOLUTE BASOPHIL” value (72 h, time 3 day) was 0 CELLS/uL, the “ABSOLUTE EOSINOPHIL” value (72 h, time 3 day) was 77.17 CELLS/uL and the “ABSOLUTE LYMPHOCYTE” value (72 h, time 3 day) was 14293.83 CELLS/uL. For the same compound, the “ABSOLUTE MONOCYTE” value (72 h, time 3 day) was 354 CELLS/uL, the “ABSOLUTE SEGMENTED NEUTROPHIL” value (72 h, time 3 day) was 1658.33 CELLS/uL and the BASOPHIL (72 h, time 3 day) was 0%. The EOSINOPHIL (72 h, time 3 day) was 0.5%, the “ERYTHROCYTE COUNT” value (72 h, time 3 day) was 6.27 x10E6/uL and the HEMATOCRIT (72 h, time 3 day) was 36.95%. For the same compound, the HEMOGLOBIN (72 h, time 3 day) was 13.4 G/DL, the “LEUKOCYTE COUNT” value (72 h, time 3 day) was 16.38 x10E3/uL and the LYMPHOCYTE (72 h, time 3 day) was 87.17%. For the same compound, the “MEAN CORPUSCULAR HEMOGLOBIN” value (72 h, time 3 day) was 21.42 pg, the “MEAN CORPUSCULAR HEMOGLOBIN CONCENTRATION” value (72 h, time 3 day) was 36.27 G/DL and the “MEAN CORPUSCULAR VOLUME” value (72 h, time 3 day) was 59.03 fL. For the same compound, the MONOCYTE (72 h, time 3 day) was 2%, the NEUTROPHIL (72 h, time 3 day) was 10.33% and the “NUCLEATED RED BLOOD CELLS” value (72 h, time 3 day) was 0 /100WBC. For the same compound, the “PLATELET COUNT” value (72 h, time 3 day) was 904.67 x10E3/uL, the “ALANINE AMINOTRANSFERASE” value (72 h, time 3 day) was 48.33 u/L and the ALBUMIN (72 h, time 3 day) was 3.82 G/DL. For the same compound, the “ALKALINE PHOSPHATASE” value (72 h, time 3 day) was 282.33 u/L, the “ASPARTATE AMINOTRANSFERASE” value (72 h, time 3 day) was 86.83 u/L and the “BLOOD UREA NITROGEN” value (72 h, time 3 day) was 20.17 mg/dL. The “CARBON DIOXIDE” value (72 h, time 3 day) was 34.67 mmol/L, the CHLORIDE (72 h, time 3 day) was 102 MEQ/L and the CHOLESTEROL (72 h, time 3 day) was 71.5 mg/dL. For the same compound, the CREATININE (72 h, time 3 day) was 0.2 mg/dL, the GLUCOSE (72 h, time 3 day) was 136.83 mg/dL and the “LACTATE DEHYDROGENASE” value (72 h, time 3 day) was 159 u/L. The LIPASE (72 h, time 3 day) was 9 u/L, the PHOSPHORUS (72 h, time 3 day) was 10.12 mg/dL and the POTASSIUM (72 h, time 3 day) was 5.92 MEQ/L. The SODIUM (72 h, time 3 day) was 147.8 MEQ/L, the “TOTAL BILIRUBIN” value (72 h, time 3 day) was 0.2 mg/dL and the “TOTAL PROTEIN” value (72 h, time 3 day) was 6.05 G/DL. The “URIC ACID” value (72 h, time 3 day) was 1.4 mg/dL, the “ABSOLUTE BASOPHIL” value (120 h, time 5 day) was 0 CELLS/uL and the “ABSOLUTE EOSINOPHIL” value (120 h, time 5 day) was 0 CELLS/uL. The “ABSOLUTE LYMPHOCYTE” value (120 h, time 5 day) was 14257.33 CELLS/uL, the “ABSOLUTE MONOCYTE” value (120 h, time 5 day) was 326 CELLS/uL and the “ABSOLUTE SEGMENTED NEUTROPHIL” value (120 h, time 5 day) was 3216.67 CELLS/uL. The BASOPHIL (120 h, time 5 day) was 0%, the EOSINOPHIL (120 h, time 5 day) was 0% and the “ERYTHROCYTE COUNT” value (120 h, time 5 day) was 6.11 x10E6/uL. For the same compound, the HEMATOCRIT (120 h, time 5 day) was 36.22%, the HEMOGLOBIN (120 h, time 5 day) was 13.18 G/DL and the “LEUKOCYTE COUNT” value (120 h, time 5 day) was 17.8 x10E3/uL. The LYMPHOCYTE (120 h, time 5 day) was 80.5%, the “MEAN CORPUSCULAR HEMOGLOBIN” value (120 h, time 5 day) was 21.62 pg and the “MEAN CORPUSCULAR HEMOGLOBIN CONCENTRATION” value (120 h, time 5 day) was 36.42 G/DL. The “MEAN CORPUSCULAR VOLUME” value (120 h, time 5 day) was 59.37 fL, the MONOCYTE (120 h, time 5 day) was 1.83% and the NEUTROPHIL (120 h, time 5 day) was 17.67%. For the same compound, the “NUCLEATED RED BLOOD CELLS” value (120 h, time 5 day) was 0 /100WBC, the “PLATELET COUNT” value (120 h, time 5 day) was 1311 x10E3/uL and the “ALANINE AMINOTRANSFERASE” value (120 h, time 5 day) was 47 u/L. The ALBUMIN (120 h, time 5 day) was 3.83 G/DL, the “ALKALINE PHOSPHATASE” value (120 h, time 5 day) was 260.33 u/L and the “ASPARTATE AMINOTRANSFERASE” value (120 h, time 5 day) was 76.17 u/L. For the same compound, the “BLOOD UREA NITROGEN” value (120 h, time 5 day) was 14.67 mg/dL, the “CARBON DIOXIDE” value (120 h, time 5 day) was 31.33 mmol/L and the CHLORIDE (120 h, time 5 day) was 101.17 MEQ/L. It also gave a CHOLESTEROL (120 h, time 5 day) of 75 mg/dL, a CREATININE (120 h, time 5 day) of 0.16 mg/dL and a GLUCOSE (120 h, time 5 day) of 152.67 mg/dL. The “LACTATE DEHYDROGENASE” value (120 h, time 5 day) was 147.33 u/L, the LIPASE (120 h, time 5 day) was 9.33 u/L and the PHOSPHORUS (120 h, time 5 day) was 10.97 mg/dL. For the same compound, the POTASSIUM (120 h, time 5 day) was 6 MEQ/L, the SODIUM (120 h, time 5 day) was 145.52 MEQ/L and the “TOTAL BILIRUBIN” value (120 h, time 5 day) was 0.17 mg/dL. The “TOTAL PROTEIN” value (120 h, time 5 day) was 5.83 G/DL, the “URIC ACID” value (120 h, time 5 day) was 1.27 mg/dL and the “ABSOLUTE BASOPHIL” value ([…], time 14 day) was 0 CELLS/uL. For the same compound, the “ABSOLUTE EOSINOPHIL” value ([…], time 14 day) was 64.5 CELLS/uL, the “ABSOLUTE LYMPHOCYTE” value ([…], time 14 day) was 12507.83 CELLS/uL and the “ABSOLUTE MONOCYTE” value ([…], time 14 day) was 380.33 CELLS/uL. The “ABSOLUTE SEGMENTED NEUTROPHIL” value ([…], time 14 day) was 2414 CELLS/uL, the BASOPHIL ([…], time 14 day) was 0% and the EOSINOPHIL ([…], time 14 day) was 0.5%. The “ERYTHROCYTE COUNT” value ([…], time 14 day) was 6.1 x10E6/uL, the HEMATOCRIT ([…], time 14 day) was 35.4% and the HEMOGLOBIN ([…], time 14 day) was 12.88 G/DL. For the same compound, the “LEUKOCYTE COUNT” value ([…], time 14 day) was 15.37 x10E3/uL, the LYMPHOCYTE ([…], time 14 day) was 80.83% and the “MEAN CORPUSCULAR HEMOGLOBIN” value ([…], time 14 day) was 21.18 pg. For the same compound, the “MEAN CORPUSCULAR HEMOGLOBIN CONCENTRATION” value ([…], time 14 day) was 36.43 G/DL, the “MEAN CORPUSCULAR VOLUME” value ([…], time 14 day) was 58.17 fL and the MONOCYTE ([…], time 14 day) was 2.17%. The NEUTROPHIL ([…], time 14 day) was 16.5%, the “NUCLEATED RED BLOOD CELLS” value ([…], time 14 day) was 0.17 /100WBC and the “PLATELET COUNT” value ([…], time 14 day) was 1016 x10E3/uL. For the same compound, the “ALANINE AMINOTRANSFERASE” value ([…], time 14 day) was 53.33 u/L, the ALBUMIN ([…], time 14 day) was 3.93 G/DL and the “ALKALINE PHOSPHATASE” value ([…], time 14 day) was 319.83 u/L. The “ASPARTATE AMINOTRANSFERASE” value ([…], time 14 day) was 84 u/L, the “BLOOD UREA NITROGEN” value ([…], time 14 day) was 15.5 mg/dL and the “CARBON DIOXIDE” value ([…], time 14 day) was 34 mmol/L. The CHLORIDE ([…], time 14 day) was 101.83 MEQ/L, the CHOLESTEROL ([…], time 14 day) was 57 mg/dL and the CREATININE ([…], time 14 day) was 0.21 mg/dL. The GLUCOSE ([…], time 14 day) was 182.33 mg/dL, the “LACTATE DEHYDROGENASE” value ([…], time 14 day) was 104.67 u/L and the LIPASE ([…], time 14 day) was 9.17 u/L. The PHOSPHORUS ([…], time 14 day) was 11.12 mg/dL, the POTASSIUM ([…], time 14 day) was 5.81 MEQ/L and the SODIUM ([…], time 14 day) was 144.85 MEQ/L. The “TOTAL BILIRUBIN” value ([…], time 14 day) was 0.18 mg/dL, the “TOTAL PROTEIN” value ([…], time 14 day) was 5.92 G/DL and the “URIC ACID” value ([…], time 14 day) was 1.38 mg/dL.
